# In patent publication US4522815A, “Anthracycline glycosides” (priority 1982, dated 1985):
# Like-named read-outs stand apart in the source and are kept apart here.
# Columns and labels:
# [1] = test system: HeLa cells; assay: Colony inhibition test against HeLa cells in vitro (cloning efficiency), treatment for 24 hrs; type: cell-based; conditions: for activity at 0.0062 µg/mL: 6.2 ng/ml; for activity at 0.025 µg/mL: 25 ng/ml; for IC50: HeLa colony inhibition; for activity at 0.0125 µg/mL: 12.5 ng/ml
# [2] = test system: ascitic P388 leukemia; assay: Antitumor activity against ascitic P388 leukemia in CDF-1 mice, treatment i.p. on day 1; type: in vivo
# Description: The primary screening […] was carried out in CDF-1 mice bearing ascitic P388 leukemia (10^6 cells/mouse). Both IIa and IIc were suspended in 10%. Tween 80 and injected intraperitoneally.
# Results of the primary screening "in vivo" carried out in CDF-1 mice bearing P388 ascitic leukemia and treated i.p. the day after tumor transplantation, are reported in Table 5.
# Antitumor activity against ascitic P388 leukekemia.
# (§1) Treatment i.p. on day 1.
# ^a median survival time; % over untreated controls
# ^b long term survivors (≥ 60 days)
# ^c evaluated on the basis of autoptic findings on dead mice
# (§2) ^d data of two experiments (range)
# ^e date of three experiments (range)
# Antitumor activity of Ib and Id against ascitic P388
# as §1
# [3] = test system: P388 leukemia cells resistant to DX (P388/DX); assay: Cytotoxicity on doxorubicin-resistant P388/DX leukemia cells in vitro, 48 hrs exposure; type: cell-based, mice
# Description: Compounds Ib and Id were studied "in vitro" on HeLa and P388 leukemia cells sensitive (P388) and resistant (P388/DX) to DX and […].
# Compound Ib was studied on P388/DX "in vitro".
# P388 and P388/DX leukemia cells were harvested from mice ascitic fluid and adapted to grow in suspension "in vitro". Cytotoxicity tests were carried out exposing the cells to various drug concentrations for 48 hrs; at the end of the exposure period, cells were counted with a coulter cell counter, and the ID50 (dose which gives 50% reduction of the cell number in comparison with untreated controls) was calculated.
# Effect on sensitive and doxorubicin-resistant P388
# ^a Dose giving 50% reduction of cell number in comparison with
# ^c P388 leukemia cells resistant to DX
# ^d Ratio between ID50 on P388/DX and ID50 on P388
# [4] = test system: P388 leukemia cells sensitive to DX; assay: Cytotoxicity on doxorubicin-sensitive P388 leukemia cells in vitro, 48 hrs exposure; type: cell-based, mice
# Excerpt: P388 and P388/DX leukemia cells were harvested from mice ascitic fluid and adapted to grow in suspension "in vitro".
# [5] = test system: Gross leukemia; assay: Antitumor activity against i.v. transplanted Gross leukemia in C3H/Me mice, treatment i.v. on day 1; type: in vivo; conditions: for T/C, median survival time; % over untreated controls / Toxic deaths: Table 6
# Excerpt: (§3) Results of studies performed in C3H/Me mice carrying i.v. transplanted Gross leukemia and treated i.v. the day after tumor transplantation, are reported in Table 6. […] The compounds Ib and Id were further investigated for oral activity on Gross leukemic transplanted i.v., in comparison with DNR, DX given i.v. and 4-dm DNR given oral route.
# Antitumor activity against i.v. Gross leukemia.
# Treatment i.v. on day 1.
# [6] = test system: Gross leukemia; assay: Oral activity against i.v. transplanted Gross leukemia (i.v. comparators); type: in vivo, C3H/Me mice; conditions: for T/C %, median survival time / Toxic deaths: Table 7
# Excerpt: as §3
# Oral activity of Ib and Id against Gross leukemia
# ^a days after transplantation
# as §2
# [7] = Homo sapiens, HeLa, Table 3, 24 hrs, read-out: No of colonies, % of untreated controls
# [8] = Homo sapiens, HeLa, 24 h, read-out: No of colonies, % of untreated controls, Table 1, 24 hrs
# [9] = Homo sapiens, HeLa, 24 h, read-out: No of colonies, % of untreated controls, Table 3, 24 hrs
# [10] = Table 2, 4.4 mg/kg i.p. day 1, two experiments
# [11] = Table 2, 6.6 mg/kg i.p. day 1, two (DNR) or three (DX) experiments
# [12] = Table 2, 10 mg/kg i.p. day 1, three experiments
# [13] = Table 5, 4.4 mg/kg i.p. day 1, DNR: two experiments
smiles,measurement,setting,value
"CC(=O)[C@]1(O)Cc2c(O)c3c(c(O)c2[C@@H](O[C@H]2C[C@H](O)[C@@H](O)[C@H](C)O2)C1)C(=O)c1ccccc1C3=O [Compound Ib, 4-demethoxy-7-0-(2,6-dideoxy-α-L-arabino-hexopyranosyl)-daunomycinone]",times less cytotoxic than 4-dm DNR,"[1]; HeLa cells cloning efficiency, vs 4-dm DNR",6 times
same,times less cytotoxic than DNR,"[1]; HeLa cells cloning efficiency, vs DNR",3 times
same,activity at 0.0015 µg/mL,"[1]; Homo sapiens, HeLa, Table 3, 1.5 ng/ml, 24 hrs, read-out: No of colonies, % of untreated controls",107%
same,activity at 0.0062 µg/mL,[1]; [7],87%
same,activity at 0.025 µg/mL,[1]; [7],67%
same,activity at 0.1 µg/mL,"[1]; Homo sapiens, HeLa, Table 3, 100 ng/ml, 24 hrs, read-out: No of colonies, % of untreated controls",0%
same,IC50,"[1]; Homo sapiens, Table 3, 24 hrs, read-out: ID50 (the source's name)",~0.035 µg/mL
same,"LTS, long term survivors (≥ 60 days)","[2]; Table 5, 1.25 mg/kg i.p. day 1",0/8
same,"T/C, median survival time; % over untreated controls","[2]; Table 5, 1.25 mg/kg i.p. day 1",140%
same,Toxic deaths (autoptic findings on dead mice),"[2]; Table 5, 1.25 mg/kg i.p. day 1",0/8
same,"LTS, long term survivors (≥ 60 days)","[2]; Table 5, 2.5 mg/kg i.p. day 1",0/9
same,"T/C, median survival time; % over untreated controls","[2]; Table 5, 2.5 mg/kg i.p. day 1",163%
same,Toxic deaths (autoptic findings on dead mice),"[2]; Table 5, 2.5 mg/kg i.p. day 1",3/9
same,"LTS, long term survivors (≥ 60 days)","[2]; Table 5, 5 mg/kg i.p. day 1",0/10
same,"T/C, median survival time; % over untreated controls","[2]; Table 5, 5 mg/kg i.p. day 1",63%
same,Toxic deaths (autoptic findings on dead mice),"[2]; Table 5, 5 mg/kg i.p. day 1",10/10
same,times less potent than 4-dm DNR,"[2]; ascitic P388, i.p. day 1",about 1.5 times
same,times more potent than DNR,"[2]; ascitic P388, i.p. day 1",2 times
same,"antileukemia activity, comparison at the Mx TD",[2]; vs DNR and 4-dm DNR,less active than DNR and 4-dm DNR
same,activity on P388/DX leukemia cells,[3]; 48 hrs,very active
same,IC50,"[3]; Mus musculus, P388/DX, dose giving 50% reduction of cell number vs untreated controls, 48 hrs, read-out: ID50 P388/DX",0.03 µg/mL
same,R: Ratio between ID50 on P388/DX and ID50 on P388,"[3]; Table 4, 2880 min",25
same,IC50,"[4]; Mus musculus, P388, dose giving 50% reduction of cell number vs untreated controls, 48 hrs, read-out: ID50 P388",0.0012 µg/mL
same,cytotoxicity on P388 leukemia cells,[4]; vs DNR,about as cytotoxic as DNR
same,"antitumor activity, comparison of the Mx TD","[5]; Gross leukemia, i.v. day 1",more active than DNR
same,toxicity and potency vs parent compounds,"[5]; Gross leukemia, i.v. day 1",more toxic and more potent than the parent compounds
same,"T/C, median survival time; % over untreated controls",[5]; 2.9 mg/kg i.v. day 1,214%
same,Toxic deaths,[5]; 2.9 mg/kg i.v. day 1,0/7
same,"T/C, median survival time; % over untreated controls",[5]; 4.4 mg/kg i.v. day 1,100%
same,Toxic deaths,[5]; 4.4 mg/kg i.v. day 1,7/8
same,"T/C %, median survival time","[6]; oral +1, 2.9 mg/kg",167%
same,Toxic deaths,"[6]; oral +1, 2.9 mg/kg",0/10
same,"T/C %, median survival time","[6]; oral +1, 4.4 mg/kg",208%
same,Toxic deaths,"[6]; oral +1, 4.4 mg/kg",0/10
same,"T/C %, median survival time","[6]; oral +1, 6.6 mg/kg",116%
same,Toxic deaths,"[6]; oral +1, 6.6 mg/kg",4/9
same,antitumor activity given orally at day 1,"[6]; oral day 1, Gross leukemia, Id at the Mx TD vs DX i.v.","good antitumor activity when given orally at day 1, comparable to that of 4-dm DNR"
"COc1cccc2c1C(=O)c1c(O)c3c(c(O)c1C2=O)C[C@@](O)(C(=O)CO)C[C@@H]3O[C@H]1C[C@H](N)[C@H](O)[C@H](C)O1 [DX, doxorubicin, reference compound]",IC50,"[1]; Homo sapiens, HeLa, 24 h, read-out: ID50, Table 1, 24 hrs",~0.01 µg/mL
same,IC50,"[1]; Homo sapiens, HeLa, 24 h, read-out: ID50, Table 3, 24 hrs",~0.0075 µg/mL
same,activity at 0.0062 µg/mL,[1]; [8],69%
same,activity at 0.0125 µg/mL,[1]; [8],40%
same,activity at 0.025 µg/mL,[1]; [8],24%
same,activity at 0.0062 µg/mL,[1]; [9],59%
same,activity at 0.0125 µg/mL,[1]; [9],28%
same,activity at 0.025 µg/mL,[1]; [9],0%
same,"T/C, median survival time; % over untreated controls","[2]; Table 2, 4.4 mg/kg i.p. day 1, data of two experiments (range)",220-227%
same,"LTS, long term survivors (≥ 60 days)",[2]; [10],2/18
same,Toxic deaths (autoptic findings on dead mice),[2]; [10],0/18
same,"T/C, median survival time; % over untreated controls","[2]; Table 2, 6.6 mg/kg i.p. day 1, range of two (DNR) or three (DX) experiments",227-305%
same,"LTS, long term survivors (≥ 60 days)",[2]; [11],2/26
same,Toxic deaths (autoptic findings on dead mice),[2]; [11],0/26
same,"LTS, long term survivors (≥ 60 days)",[2]; [12],7/26
same,Toxic deaths (autoptic findings on dead mice),[2]; [12],3/26
same,"LTS, long term survivors (≥ 60 days)",[2]; [13],1/10
same,Toxic deaths (autoptic findings on dead mice),[2]; [13],0/10
same,"T/C, median survival time; % over untreated controls","[2]; Table 5, 4.4 mg/kg i.p. day 1, DNR: two experiments (range)",220%
same,"LTS, long term survivors (≥ 60 days)","[2]; Table 5, 6.6 mg/kg i.p. day 1",0/10
same,"T/C, median survival time; % over untreated controls","[2]; Table 5, 6.6 mg/kg i.p. day 1",305%
same,Toxic deaths (autoptic findings on dead mice),"[2]; Table 5, 6.6 mg/kg i.p. day 1",0/10
same,"LTS, long term survivors (≥ 60 days)","[2]; Table 5, 10 mg/kg i.p. day 1",5/10
same,"T/C, median survival time; % over untreated controls","[2]; Table 5, 10 mg/kg i.p. day 1",> 610%
same,Toxic deaths (autoptic findings on dead mice),"[2]; Table 5, 10 mg/kg i.p. day 1",0/10
same,"T/C, median survival time; % over untreated controls",[5]; 10 mg/kg i.v. day 1,171%
same,Toxic deaths,[5]; 10 mg/kg i.v. day 1,0/10
same,"T/C, median survival time; % over untreated controls",[5]; 13 mg/kg i.v. day 1,200%
same,Toxic deaths,[5]; 13 mg/kg i.v. day 1,0/10
same,"T/C, median survival time; % over untreated controls",[5]; 16.9 mg/kg i.v. day 1,207%
same,Toxic deaths,[5]; 16.9 mg/kg i.v. day 1,3/10
same,Toxic deaths,"[6]; i.v. +1, 10 mg/kg, two experiments",1/20
same,"T/C %, median survival time","[6]; i.v. +1, 10 mg/kg, two experiments (range)",171-171%
same,Toxic deaths,"[6]; i.v. +1, 13 mg/kg, two experiments",1/20
same,"T/C %, median survival time","[6]; i.v. +1, 13 mg/kg, two experiments (range)",200-200%
same,Toxic deaths,"[6]; i.v. +1, 16.9 mg/kg, two experiments",3/13
same,"T/C %, median survival time","[6]; i.v. +1, 16.9 mg/kg, two experiments (range)",200-207%
